From patent publication US10501445B2, “Quinoxalinones and dihydroquinoxalinones as respiratory syncytial virus antiviral agents” (JANSSEN SCIENCES IRELAND UC, priority 2013, dated 2019)

Tests used:
rgRSV224 virus = test: Antiviral activity: rgRSV224 (GFP-expressing RSV) replication in HeLa cells, GFP expression readout; type: cell-based; conditions: human respiratory syncytial virus, 72 h, read-out: WT activity EC50
Method: (§1) Black 96-well clear-bottom microtiter plates (Corning, Amsterdam, The Netherlands) were filled in duplicate using a customized robot system with serial 4-fold dilutions of compound in a final volume of 50 μl culture medium [RPMI medium without phenol red, 10% FBS, 0.04% gentamycin (50 mg/ml) and 0.5% DMSO]. Then, 100 μl of a HeLa cell suspension (5×10^4 cells/ml) in culture medium was added to each well followed by the addition of 50 μl rgRSV224 (MOI=0.02) virus in culture medium using a multidrop dispenser (Thermo Scientific, Erembodegem, Belgium). rgRSV224 virus is an engineered virus that includes an additional GFP gene (Hallak et al, 2000) and was in-licensed from the NIH (Bethesda, Md., USA). Medium, virus- and mock-infected controls were included in each test. Cells were incubated at 37° C. in a 5% CO2 atmosphere. Three days post-virus exposure, viral replication was quantified by measuring GFP expression in the cells by a MSM laser microscope (Tibotec, Beerse, Belgium). The EC50 was defined as the 50% inhibitory concentration for GFP expression. In parallel, compounds were incubated for three days in a set of white 96-well microtitier plates (Corning) and the cytotoxicity of compounds in HeLa cells was determined by measuring the ATP content of the cells using the ATPlite kit (PerkinElmer, Zaventem, Belgium) according to the manufacturer's instructions. The CC50 was defined as the 50% concentration for cytotoxicity.

in vitro = type: cell-based; conditions: human
Method: as §1

Row | SMILES | EC50 (rgRSV224 virus) | CC50 at 3 days (in vitro)
1 | O=c1cnc2ccc(Br)cc2n1Cc1nc2cc(F)ccc2n1CCCCF [Compound P1, 7-bromo-1-{[5-fluoro-1-(4-fluorobutyl)-1H-benzimidazol-2-yl]methyl}quinoxalin-2(1H)-one] | 0.071 µM | 87 µM
2 | O=c1cnc2ccc(-c3ccc(CCN4CCOCC4)cc3)cc2n1Cc1nc2cc(F)ccc2n1CCCCF [Compound P2, 1-((5-fluoro-1-(4-fluorobutyl)-1H-benzo[d]imidazol-2-yl)methyl)-7-(4-(2-morpholinoethyl)phenyl)quinoxalin-2(1H)-one] | > 10.1 µM | 94 µM
3 | O=c1cnc2ccc(-c3ccc(C(F)(F)F)cc3)cc2n1Cc1nc2cc(F)ccc2n1CCCCF [Compound P3, 1-((5-fluoro-1-(4-fluorobutyl)-1H-benzo[d]imidazol-2-yl)methyl)-7-(4-(trifluoromethyl)phenyl)quinoxalin-2(1H)-one] | > 10.1 µM | 42.4 µM
4 | Cc1nc(C)c(-c2ccc3ncc(=O)n(Cc4nc5cc(F)ccc5n4CCCCF)c3c2)s1 [Compound P4, 7-(2,4-dimethylthiazol-5-yl)-1-((5-fluoro-1-(4-fluorobutyl)-1H-benzo[d]imidazol-2-yl)methyl)quinoxalin-2(1H)-one] | 4.78 µM | 31.1 µM
5 | Cn1nc(C(F)(F)F)cc1-c1ccc2ncc(=O)n(Cc3nc4cc(F)ccc4n3CCCCF)c2c1 [Compound P5, 1-((5-fluoro-1-(4-fluorobutyl)-1H-benzo[d]imidazol-2-yl)methyl)-7-(1-methyl-3-(trifluoromethyl)-1H-pyrazol-5-yl)quinoxalin-2(1H)-one] | 4.89 µM | 53.3 µM
6 | O=c1cnc2ccc(-c3ccccc3)cc2n1Cc1nc2cc(F)ccc2n1CCCCF [Compound P6, 1-((5-fluoro-1-(4-fluorobutyl)-1H-benzo[d]imidazol-2-yl)methyl)-7-phenylquinoxalin-2(1H)-one] | 3.94 µM | 42.8 µM
7 | CN(C)Cc1cccc(-c2ccc3ncc(=O)n(Cc4nc5cc(F)ccc5n4CCCCF)c3c2)c1 [Compound P7, 7-(3-((dimethylamino)methyl)phenyl)-1-((5-fluoro-1-(4-fluorobutyl)-1H-benzo[d]imidazol-2-yl)methyl)quinoxalin-2(1H)-one] | 0.099 µM | 17.6 µM
8 | O=c1cnc2ccc(-c3ccncc3)cc2n1Cc1nc2cc(F)ccc2n1CCCCF [Compound P8, 1-((5-fluoro-1-(4-fluorobutyl)-1H-benzo[d]imidazol-2-yl)methyl)-7-(pyridin-4-yl)quinoxalin-2(1H)-one] | 2.69 µM | 86.8 µM
9 | O=c1cnc2ccc(F)cc2n1Cc1nc2cc(F)ccc2n1CCCCF [Compound P9, 7-fluoro-1-((5-fluoro-1-(4-fluorobutyl)-1H-benzo[d]imidazol-2-yl)methyl)quinoxalin-2(1H)-one] | 0.27 µM | > 100 µM
10 | O=c1cnc2cc(F)ccc2n1Cc1nc2cc(F)ccc2n1CCCCF [Compound P10, 6-fluoro-1-((5-fluoro-1-(4-fluorobutyl)-1H-benzo[d]imidazol-2-yl)methyl)quinoxalin-2(1H)-one] | 1.04 µM | > 100 µM
11 | O=c1cnc2cnccc2n1Cc1nc2cc(F)ccc2n1CCCCF [Compound P11, 1-((5-fluoro-1-(4-fluorobutyl)-1H-benzo[d]imidazol-2-yl)methyl)pyrido[3,4-b]pyrazin-2(1H)-one] | 7.21 µM | > 100 µM
12 | O=C1CN(C2CC2)c2ccncc2N1Cc1nc2cc(F)ccc2n1CCCCF [Compound P12, 1-cyclopropyl-4-((5-fluoro-1-(4-fluorobutyl)-1H-benzo[d]imidazol-2-yl)methyl)-1,2-dihydropyrido[3,4-b]pyrazin-3(4H)-one] | 0.011 µM | 50.1 µM
13 | CC(C)CCn1c(Cn2c(=O)cnc3ccc(Br)cc32)nc2nc(Cl)ccc21 [Compound P13, 7-bromo-1-((5-chloro-1-isopentyl-1H-imidazo[4,5-b]pyridin-2-yl)methyl) quinoxalin-2(1H)-one] | 0.004 µM | 46.5 µM
14 | CC(C)CCn1c(Cn2c(=O)cnc3ccc(-c4ccncc4)cc32)nc2nc(Cl)ccc21 [Compound P14, 1-((5-chloro-1-isopentyl-1H-imidazo[4,5-b]pyridin-2-yl)methyl)-7-(pyridin-4-yl)quinoxalin-2(1H)-one] | 0.061 µM | 14.7 µM
15 | CC(C)CCn1c(Cn2c(=O)cnc3ccc(-c4ccsc4)cc32)nc2nc(Cl)ccc21 [Compound P15, 1-((5-chloro-1-isopentyl-1H-imidazo[4,5-b]pyridin-2-yl)methyl)-7-(thiophen-3-yl)-quinoxalin-2(1H)-one] | 0.34 µM | 27.6 µM
16 | CC(C)CCn1c(Cn2c(=O)cnc3ccc(-c4cccn4C(=O)OC(C)(C)C)cc32)nc2nc(Cl)ccc21 [Compound P16, tert-butyl 2-(4-((5-chloro-1-isopentyl-1H-imidazo[4,5-b]pyridin-2-yl)methyl)-3-oxo-3,4-dihydroquinoxalin-6-yl)-1H-pyrrole-1-carboxylate] | 0.51 µM | 42.5 µM
17 | CC(C)CCn1c(Cn2c(=O)cnc3ccc(-c4cncnc4)cc32)nc2nc(Cl)ccc21 [Compound P17, 1-((5-chloro-1-isopentyl-1H-imidazo[4,5-b]pyridin-2-yl)methyl)-7-(pyrimidin-5-yl)quinoxalin-2(1H)-one] | 0.48 µM | > 100 µM
18 | CC(C)CCn1c(Cn2c(=O)cnc3ccc(-c4ccc(F)cc4)cc32)nc2nc(Cl)ccc21 [Compound P18, 1-((5-chloro-1-isopentyl-1H-imidazo[4,5-b]pyridin-2-yl)methyl)-7-(4-fluorophenyl)quinoxalin-2(1H)-one] | 3.33 µM | 51.5 µM
19 | CC(C)CCn1c(Cn2c(=O)cnc3ccc(F)cc32)nc2nc(Cl)ccc21 [Compound P19, 1-((5-chloro-1-isopentyl-1H-imidazo[4,5-b]pyridin-2-yl)methyl)-7-fluoroquinoxalin-2(1H)-one] | 0.042 µM | > 100 µM
20 | CC(C)CCn1c(Cn2c(=O)cnc3cc(F)ccc32)nc2nc(Cl)ccc21 [Compound P20, 1-((5-chloro-1-isopentyl-1H-imidazo[4,5-b]pyridin-2-yl)methyl)-6-fluoroquinoxalin-2(1H)-one] | 0.032 µM | > 100 µM
21 | CC(C)CCn1c(Cn2c(=O)cnc3cnccc32)nc2nc(Cl)ccc21 [Compound P21, 1-((5-chloro-1-isopentyl-1H-imidazo[4,5-b]pyridin-2-yl)methyl)pyrido[4,3-b]pyrazin-2(1H)-one] | > 10.1 µM | > 100 µM
22 | CC(C)CCn1c(CN2C(=O)CN(C3CC3)c3ccncc32)nc2nc(Cl)ccc21 [Compound P22, 4-((5-chloro-1-isopentyl-1H-imidazo[4,5-b]pyridin-2-yl)methyl)-1-cyclopropyl-1,2-dihydropyrido[3,4-b]pyrazin-3(4H)-one] | 0.12 µM | 60.7 µM
23 | CS(=O)(=O)CCCn1c(CN2C(=O)CN(C3CC3)c3ccncc32)nc2cc(Br)ccc21 [Compound P23, 4-((5-bromo-1-(3-(methylsulfonyl)propyl)-1H-benzo[d]imidazol-2-yl)methyl)-1-cyclopropyl-1,2-dihydropyrido[3,4-b]pyrazin-3(4H)-one] | 0.0015 µM | 71.3 µM
24 | CS(=O)(=O)CCCn1c(Cn2c(=O)cnc3ccc(F)cc32)nc2cc(Br)ccc21 [Compound P24, 1-((5-bromo-1-(3-(methylsulfonyl)propyl)-1H-benzo[d]imidazol-2-yl)methyl)-7-fluoroquinoxalin-2(1H)-one] | 0.004 µM | 78.5 µM
25 | CS(=O)(=O)CCCn1c(Cn2c(=O)cnc3cc(F)ccc32)nc2cc(Br)ccc21 [Compound P25, 1-((5-bromo-1-(3-(methylsulfonyl)propyl)-1H-benzo[d]imidazol-2-yl)methyl)-6-fluoroquinoxalin-2(1H)-one] | 0.0065 µM | 64 µM
26 | CS(=O)(=O)CCCn1c(CN2C(=O)CN(C3CC3)c3ccncc32)nc2cc(Cl)ccc21 [Compound P26, 4-((5-chloro-1-(3-(methylsulfonyl)propyl)-1H-benzo[d]imidazol-2-yl)-methyl)-1-cyclopropyl-1,2-dihydropyrido[3,4-b]pyrazin-3(4H)-one] | 0.015 µM | > 100 µM
27 | O=C1CN(C2CC2)c2ccncc2N1Cc1nc2cc(Cl)ccc2n1CCCC(F)(F)F [Compound P27, 4-((5-chloro-1-(4,4,4-trifluorobutyl)-1H-benzo[d]imidazol-2-yl)methyl)-1-cyclopropyl-1,2-dihydropyrido[3,4-b]pyrazin-3(4H)-one] | 0.029 µM | > 100 µM
28 | CS(=O)(=O)CCCn1c(Cn2c(=O)cnc3ccc(F)cc32)cc2cc(Br)ccc21 [Compound P28, 1-((5-bromo-1-(3-(methylsulfonyl)propyl)-1H-indol-2-yl)methyl)-7-fluoroquinoxalin-2(1H)-one] | 0.018 µM | –
29 | CS(=O)(=O)CCCn1c(Cn2c(=O)cnc3cc(F)ccc32)cc2cc(Br)ccc21 [Compound P29, 1-((5-bromo-1-(3-(methylsulfonyl)propyl)-1H-indol-2-yl)methyl)-6-fluoroquinoxalin-2(1H)-one] | 0.055 µM | 9.73 µM
